Results taken from patent EP0442769A2 (priority 1990, dated 1991).

test system: membrane érythrocytaire; assay: Membrane adsorption at haematocrit 45%; type: in vitro ADME; conditions: not given
Description: (§1) Ces composés ont été également testés pour leur absorption membranaire et stabilité érythrocitaire et plasmatique.

| Compound | Adsorption membranaire à Hte 45% [%] |
| --- | --- |
| C=CCN1CC[C@]23c4c5ccc(OP(=O)(O)O)c4O[C@H]2C(=O)CC[C@@]3(O)[C@H]1C5 [naloxone-3-phosphate] | 0 |
| C=CCN1CC[C@]23c4c5ccc(OP(=O)(O)OP(=O)(O)OP(=O)(O)O)c4O[C@H]2C(=O)CC[C@@]3(O)[C@H]1C5 [naloxone-3-triphopshate] | 22 |
| O=C1CC[C@@]2(OS(=O)(=O)O)[C@H]3Cc4ccc(OS(=O)(=O)O)c5c4[C@@]2(CCN3CC2CC2)[C@H]1O5 [naltrexone-3,14-disulfate] | 40 |

test system: not listed separately; assay: Stability in haemolysate; type: in vitro ADME; set-up: key: + : stable.; *a: * : stabilité dans le sérum frais à 37°C au bout de 24h : on ne retrouve que 8 à 12%, 78% et 65% de la quantité de départ dans le sérum respectivement pour (a), (b) et (c).; *b: * : stabilité dans le sérum frais à 37°C au bout de 24h : on ne retrouve que 8 à 12%, 78% et 65% de la quantité de départ dans le sérum respectivement pour (a), (b) et (c).; *c: * : stabilité dans le sérum frais à 37°C au bout de 24h : on ne retrouve que 8 à 12%, 78% et 65% de la quantité de départ dans le sérum respectivement pour (a), (b) et (c); conditions: 4°C
Description: as §1

| Compound | Stabilité dans hémolysat 4°C |
| --- | --- |
| C=CCN1CC[C@]23c4c5ccc(OP(=O)(O)O)c4O[C@H]2C(=O)CC[C@@]3(O)[C@H]1C5 [naloxone-3-phosphate] | + |
| C=CCN1CC[C@]23c4c5ccc(OP(=O)(O)OP(=O)(O)OP(=O)(O)O)c4O[C@H]2C(=O)CC[C@@]3(O)[C@H]1C5 [naloxone-3-triphopshate] | + |
| O=C1CC[C@@]2(OS(=O)(=O)O)[C@H]3Cc4ccc(OS(=O)(=O)O)c5c4[C@@]2(CCN3CC2CC2)[C@H]1O5 [naltrexone-3,14-disulfate] | + |

same assay, conditions: 37°C

| Compound | Stabilité dans hémolysat 37°C |
| --- | --- |
| C=CCN1CC[C@]23c4c5ccc(OP(=O)(O)O)c4O[C@H]2C(=O)CC[C@@]3(O)[C@H]1C5 [naloxone-3-phosphate] | + |
| C=CCN1CC[C@]23c4c5ccc(OP(=O)(O)OP(=O)(O)OP(=O)(O)O)c4O[C@H]2C(=O)CC[C@@]3(O)[C@H]1C5 [naloxone-3-triphopshate] | + |
| O=C1CC[C@@]2(OS(=O)(=O)O)[C@H]3Cc4ccc(OS(=O)(=O)O)c5c4[C@@]2(CCN3CC2CC2)[C@H]1O5 [naltrexone-3,14-disulfate] | + |

test system: not listed separately; assay: Stability in fresh serum; type: in vitro ADME; set-up: key to Stabilité dans sérum frais 4°C / Stabilité dans sérum frais 37°C: + : stable.; *a: * : stabilité dans le sérum frais à 37°C au bout de 24h : on ne retrouve que 8 à 12%, 78% et 65% de la quantité de départ dans le sérum respectivement pour (a), (b) et (c).; *b: * : stabilité dans le sérum frais à 37°C au bout de 24h : on ne retrouve que 8 à 12%, 78% et 65% de la quantité de départ dans le sérum respectivement pour (a), (b) et (c).; *c: * : stabilité dans le sérum frais à 37°C au bout de 24h : on ne retrouve que 8 à 12%, 78% et 65% de la quantité de départ dans le sérum respectivement pour (a), (b) et (c); conditions: 4°C
Description: as §1

| Compound | Stabilité dans sérum frais 4°C |
| --- | --- |
| C=CCN1CC[C@]23c4c5ccc(OP(=O)(O)O)c4O[C@H]2C(=O)CC[C@@]3(O)[C@H]1C5 [naloxone-3-phosphate] | + |
| C=CCN1CC[C@]23c4c5ccc(OP(=O)(O)OP(=O)(O)OP(=O)(O)O)c4O[C@H]2C(=O)CC[C@@]3(O)[C@H]1C5 [naloxone-3-triphopshate] | + |
| O=C1CC[C@@]2(OS(=O)(=O)O)[C@H]3Cc4ccc(OS(=O)(=O)O)c5c4[C@@]2(CCN3CC2CC2)[C@H]1O5 [naltrexone-3,14-disulfate] | + |

same assay, conditions: 37°C, * = fraction of starting quantity found after 24h

| Compound | Stabilité dans sérum frais 37°C |
| --- | --- |
| C=CCN1CC[C@]23c4c5ccc(OP(=O)(O)O)c4O[C@H]2C(=O)CC[C@@]3(O)[C@H]1C5 [naloxone-3-phosphate] | + |
| O=C1CC[C@@]2(OS(=O)(=O)O)[C@H]3Cc4ccc(OS(=O)(=O)O)c5c4[C@@]2(CCN3CC2CC2)[C@H]1O5 [naltrexone-3,14-disulfate] | + |

same assay, conditions: 37°C, * = fraction of starting quantity found after 24h, read-out: Stabilité dans sérum frais 37°C

| Compound | remaining at 24 h [%] |
| --- | --- |
| C=CCN1CC[C@]23c4c5ccc(OP(=O)(O)OP(=O)(O)OP(=O)(O)O)c4O[C@H]2C(=O)CC[C@@]3(O)[C@H]1C5 [naloxone-3-triphopshate] | 78 |

test system: GR chargés; assay: Extracellular leak from loaded red blood cells, 24 h incubation; type: in vitro ADME; conditions: 4°C
Description: as §1

| Compound | GR chargés : Incubation 24h Fuite extra-cellulaire 4°C [%] |
| --- | --- |
| C=CCN1CC[C@]23c4c5ccc(OP(=O)(O)O)c4O[C@H]2C(=O)CC[C@@]3(O)[C@H]1C5 [naloxone-3-phosphate] | 1 |
| C=CCN1CC[C@]23c4c5ccc(OP(=O)(O)OP(=O)(O)OP(=O)(O)O)c4O[C@H]2C(=O)CC[C@@]3(O)[C@H]1C5 [naloxone-3-triphopshate] | 0 |
| O=C1CC[C@@]2(OS(=O)(=O)O)[C@H]3Cc4ccc(OS(=O)(=O)O)c5c4[C@@]2(CCN3CC2CC2)[C@H]1O5 [naltrexone-3,14-disulfate] | 15 |

same assay, conditions: 37°C

| Compound | GR chargés : Incubation 24h Fuite extra-cellulaire 37°C [%] |
| --- | --- |
| C=CCN1CC[C@]23c4c5ccc(OP(=O)(O)O)c4O[C@H]2C(=O)CC[C@@]3(O)[C@H]1C5 [naloxone-3-phosphate] | 12 |
| C=CCN1CC[C@]23c4c5ccc(OP(=O)(O)OP(=O)(O)OP(=O)(O)O)c4O[C@H]2C(=O)CC[C@@]3(O)[C@H]1C5 [naloxone-3-triphopshate] | 0 |
| O=C1CC[C@@]2(OS(=O)(=O)O)[C@H]3Cc4ccc(OS(=O)(=O)O)c5c4[C@@]2(CCN3CC2CC2)[C@H]1O5 [naltrexone-3,14-disulfate] | 70 |

molecular target: T1, sites opioides de type µ (Oryctolagus cuniculus, UniProt G1TAQ8); assay: [3H]diprenorphine competition binding, crude membrane fraction of rabbit cerebellum; set-up: species or system lapin; conditions: [3H]diprenorphine 0,3 nM, rabbit cerebellum membranes, 1 h at 25°C; (n) in brackets; read-out: I50µ (concentration inhibitrice 50)
T1 construct: fraction membranaire brute obtenue à partir de tissu frais (cervelet de lapin, cervelet de cobaye); from tissue; host or cells: rabbit cerebellum (New Zealand rabbits), crude membrane fraction
Experimental: (§2) Les animaux utilisés sont des lapins néo-zélandais d'environ 1500 g et des cobayes tricolores d'environ 300 g.
(§3) La préparation utilisée est une fraction membranaire brute obtenue à partir de tissu frais (cervelet de lapin, cervelet de cobaye) par une méthode standard d'homogénéisation et de centrifugation différentielle. La suspension finale est en tampon tris-HCl (50 mM, pH 7,4) et contient environ 5 mg de protéine par ml.
(§4) [15,16(n)-³H] diprenorphine à 25-30 CI/mmol (Amersham International plc, Amersham, Angleterre).
(§5) Radioligand (0,3 pmol) de [³H] diprenorphine et fraction membranaire brute (0,25 mg de protéine) sont incubés pendant 1 heure à 25°C dans un volume final de 1,0 ml en tampon Tris-HCl (50 mM, pH 7,4) : • (i) en absence de toute drogue compétitrice , • (ii) en présence de 12 concentrations croissantes de la nouvelle drogue et, • (iii) en présence de 10 µmol/l de diprenorphine non radioactive.
(§6) Le contenu de chaque tube est ensuite rapidement filtré (sous vide) sur disques de fibre de verre (Whatman GF/B) disposés sur un jeu de rampes de filtration Millipore modèle 1225. Les filtres sont rincés avec 2 x 3 ml de tampon froid (O-2°C) puis séchés sous une lampe IR pendant 15 minutes. La radioactivité de chaque filtre, dans 3 ml de cocktail Ready-sol MB (Beckman) est comptée avec un compteur à scintillation liquide Kontron modèle MR 300.
(§7) A partir des paramètres mesurés, il est ensuite calculé les différentes constantes Kx pour les sites considérés.
(§8) Ces valeurs ont été calculées à partir des valeurs mesurées des concentrations CI.50 de drogue inhibant de 50 % la liaison à l'équilibre de (3H) diprenorphine utilisée à la concentration fixe de 0,3 nM.

| Compound | IC50 [µM] |
| --- | --- |
| C=CCN1CC[C@]23c4c5ccc(OP(=O)(O)O)c4O[C@H]2C(=O)CC[C@@]3(O)[C@H]1C5 [naloxone-3-phosphate] | 0.0035 ± 0.0003 |
| C=CCN1CC[C@]23c4c5ccc(OP(=O)(O)OP(=O)(O)OP(=O)(O)O)c4O[C@H]2C(=O)CC[C@@]3(O)[C@H]1C5 [naloxone-3-triphopshate] | 0.021 ± 0.002 |
| O=C1CC[C@@]2(OS(=O)(=O)O)[C@H]3Cc4ccc(OS(=O)(=O)O)c5c4[C@@]2(CCN3CC2CC2)[C@H]1O5 [naltrexone-3,14-disulfate] | 7.85 |

same assay, conditions: calculated from the measured CI.50; rabbit cerebellum membranes; read-out: KIµ (constante de dissociation apparente du composé testé)

| Compound | Ki [µM] |
| --- | --- |
| C=CCN1CC[C@]23c4c5ccc(OP(=O)(O)O)c4O[C@H]2C(=O)CC[C@@]3(O)[C@H]1C5 [naloxone-3-phosphate] | 0.0009 |
| C=CCN1CC[C@]23c4c5ccc(OP(=O)(O)OP(=O)(O)OP(=O)(O)O)c4O[C@H]2C(=O)CC[C@@]3(O)[C@H]1C5 [naloxone-3-triphopshate] | 0.0052 |
| O=C1CC[C@@]2(OS(=O)(=O)O)[C@H]3Cc4ccc(OS(=O)(=O)O)c5c4[C@@]2(CCN3CC2CC2)[C@H]1O5 [naltrexone-3,14-disulfate] | 1.96 |

same assay, conditions: result in words

| Compound | affinité apparente pour les sites opioïdes µ |
| --- | --- |
| C=CCN1CC[C@]23c4c5ccc(OP(=O)(O)O)c4O[C@H]2C(=O)CC[C@@]3(O)[C@H]1C5 [naloxone-3-phosphate] | activité légèrement plus élevée que la naloxone |

molecular target: T2, sites opioides de type k (Cavia porcellus, UniProt P41144); assay: [3H]diprenorphine competition binding, crude membrane fraction of guinea pig cerebellum; set-up: species or system cobaye; conditions: [3H]diprenorphine 0,3 nM, guinea pig cerebellum membranes, 1 h at 25°C; (n) in brackets; read-out: I50κ (concentration inhibitrice 50)
T2 construct: fraction membranaire brute obtenue à partir de tissu frais (cervelet de lapin, cervelet de cobaye); from tissue; host or cells: guinea pig cerebellum (tricolour guinea pigs), crude membrane fraction
Experimental: as §2, §3, §4, §5, §6, §7, §8

| Compound | IC50 [µM] |
| --- | --- |
| C=CCN1CC[C@]23c4c5ccc(OP(=O)(O)OP(=O)(O)OP(=O)(O)O)c4O[C@H]2C(=O)CC[C@@]3(O)[C@H]1C5 [naloxone-3-triphopshate] | 0.106 ± 0.015 |
| O=C1CC[C@@]2(OS(=O)(=O)O)[C@H]3Cc4ccc(OS(=O)(=O)O)c5c4[C@@]2(CCN3CC2CC2)[C@H]1O5 [naltrexone-3,14-disulfate] | 39 |

same assay, conditions: calculated from the measured CI.50; guinea pig cerebellum membranes; read-out: KIκ (constante de dissociation apparente du composé testé)

| Compound | Ki [µM] |
| --- | --- |
| C=CCN1CC[C@]23c4c5ccc(OP(=O)(O)OP(=O)(O)OP(=O)(O)O)c4O[C@H]2C(=O)CC[C@@]3(O)[C@H]1C5 [naloxone-3-triphopshate] | 0.027 |
| O=C1CC[C@@]2(OS(=O)(=O)O)[C@H]3Cc4ccc(OS(=O)(=O)O)c5c4[C@@]2(CCN3CC2CC2)[C@H]1O5 [naltrexone-3,14-disulfate] | 9.7 |
